{
  "source": "paper PMC5734728",
  "about": "“The JAK2/STAT3 inhibitor pacritinib effectively inhibits patient-derived GBM brain tumor initiating cells in vitro and when used in combination with temozolomide increases survival in an orthotopic xenograft model” (PLoS ONE, 2017)",
  "key": {"[1]": {"assay": "in vitro", "type": "in vitro ADME, mouse", "details": "male, CD-1, mouse", "method": "(§1) Working stocks were initially diluted to a concentration of 40 μM in 0.1 M potassium phosphate buffer before addition to the reaction vials. Pooled mouse (CD-1, male) or human (50 donors) liver microsomes were utilized at a final concentration of 0.5 mg/mL. Duplicate wells were used for each time point (0 and 30 minutes). Reactions were carried out at 37°C in a shaker, and the final concentration of DMSO was kept constant at 0.01%. The final volume for each reaction was 100 μL, which included the addition of an NADPH-Regeneration solution (NRS) mix. The NRS mix was comprised of glucose 6-phosphate dehydrogenase (0.4 U/mL), NADP+ (1.3 mM), MgCl2 (3.3 mM), and glucose 6-phosphate (3.3 mM) in assay mixtures. Upon completion of the 30-minute time point, reactions were terminated by the addition of 1.5-volumes (150 μL) of ice-cold acetonitrile with 0.5% formic acid and internal standard. Samples were then centrifuged at 4,000 rpm for 10 minutes to remove debris and precipitated protein. Approximately 150 μL of supernatant was subsequently transferred to a new 96-well microplate for LC-MS analysis. Narrow-window mass extraction LC-MS analysis was performed for all samples using a Waters Xevo quadrupole time-of-flight (QToF) mass spectrometer and an ACQUITY UPLC system, to determine relative peak areas of parent compound."}, "[2]": {"details": "mouse liver microsomes; usual value of control compound; cited from earlier work"}, "[3]": {"assay": "human liver microsomal stability assay", "type": "in vitro ADME", "details": "human liver microsomes, 30-minute incubation, 1 μM", "method": "as §1"}, "[4]": {"details": "human liver microsomes; usual value of control compound; cited from earlier work"}, "[5]": {"system": "p-STAT3 Y705", "assay": "western blotting of activated STAT3 in BTICs", "type": "cell-based, human", "details": "BT53, 48 hours; 1 μM pacritinib, 10 μg/mL TMZ or both", "method": "BTIC spheres were enzymatically dissociated as described above and plated at 10^6 cells/2 mL of media. Cells were treated with vehicle (DMSO), pacritinib, TMZ, or a combination of pacritinib and TMZ and pelleted at select time points (3, 24, and 48 hours). For protein extraction, BTICs were lysed in modified radio-immunoprecipitation assay buffer supplemented with Complete Mini protease (Roche) and Halt phosphatase (Thermo Scientific) inhibitor cocktails. Protein concentrations were quantified using the BioRad protein assay; 20 μg of protein were loaded on 6% or 10% sodium dodecyl sulfate polyacrylamide gel electrophoresis (SDS PAGE) gels and transblotted to nitrocellulose membranes. Blots were stained with primary antibodies followed by horseradish peroxidase-conjugated secondary antibodies. Primary antibodies included p-STAT3 Y705 (1:1000; Cell Signaling Technology), STAT3 (1:1000; Cell Signaling Technology), p-Akt S473 (1:1000; Cell Signaling Technology), Akt (1:1000; Cell Signaling Technology), p-p44/42 MAPK (T202/Y204) (1:1000; Cell Signaling Technology), p44/42 MAPK (1:4000; Cell Signaling Technology), poly (ADP-ribose) polymerase (1:1000; Cell Signaling Technology), β-tubulin (1:1000; Cell Signaling Technology), and Actin (1:1000; Santa Cruz Biotechnology). Secondary antibodies included donkey anti-mouse (1:5000; Cell Signaling Technology), donkey anti-goat (1:5000; Millipore), and goat anti-rabbit (1:5000; Cell Signaling Technology). The blots were washed with tris-buffered saline and tween 20 (T-TBS) (50mM Tris, 150mM NaCl, 0.05% Tween 20, pH 7.6) and blocked with tris-buffered saline (TBS) before imaging. Bands were visualized with the SuperSignal West Pico chemiluminescent solution (Thermo Scientific) and an Amersham™ Imager 600 (General Electric)."}, "[6]": {"system": "BT53 orthotopic xenograft", "assay": "Kaplan-Meier survival, orthotopic BT53 xenograft", "type": "in vivo, mice", "details": "BT53; combination p < 0.0023, TMZ alone p < 0.0229, log-rank", "method": "For Kaplan-Meier survival studies, BTIC spheres from BT53 or BT147 were dissociated to a single-cell suspension. Mice were anaesthetized using 10 mg/kg ketamine/xylazine. Buprenorphine (0.05 mg/kg) was administered once pre-operatively and once post-operatively to minimize animal suffering. 5 x 10^4 cells were stereotactically implanted into the right striata of 8- to 10-week-old female severe combined immunodeficient (SCID) mice, as previously described and approved by the University of Calgary Health Sciences Animal Care Committee, accredited by CCAC. Mice were randomized to vehicle or treatment cohorts, with a minimum of 8 mice per group, one week after cell implantation. For BT147, vehicle (Ora-Plus; Galenova), pacritinib (100 mg/kg), TMZ (30 mg/kg), or a combination of pacritinib (100 mg/kg) and TMZ (30 mg/kg), were administered via oral gavage. Animals completed a five-week regimen of three weekly treatments for a total of 15 treatments. For BT53, 100 mg/kg of pacritinib was administered twice per day alone or in combination with 50 mg/kg TMZ once per day, for one week via oral gavage. Following this, mice received 100 mg/kg pacritinib twice per day in combination with 10 mg/kg TMZ once per day for two weeks. […] The body weights were closely monitored throughout the course of the experiment. […]"}, "[7]": {"system": "BT147 orthotopic xenograft", "assay": "Kaplan-Meier survival, orthotopic BT147 xenograft", "type": "in vivo", "details": "BT147 xenografted mice; pacritinib 100 mg/kg, TMZ 30 mg/kg, oral, thrice weekly for five weeks; control 52 days", "method": "For Kaplan-Meier survival studies, BTIC spheres from BT53 or BT147 were dissociated to a single-cell suspension. Mice were anaesthetized using 10 mg/kg ketamine/xylazine. Buprenorphine (0.05 mg/kg) was administered once pre-operatively and once post-operatively to minimize animal suffering. 5 x 10^4 cells were stereotactically implanted into the right striata of 8- to 10-week-old female severe combined immunodeficient (SCID) mice, as previously described and approved by the University of Calgary Health Sciences Animal Care Committee, accredited by CCAC. Mice were randomized to vehicle or treatment cohorts, with a minimum of 8 mice per group, one week after cell implantation. For BT147, vehicle (Ora-Plus; Galenova), pacritinib (100 mg/kg), TMZ (30 mg/kg), or a combination of pacritinib (100 mg/kg) and TMZ (30 mg/kg), were administered via oral gavage. Animals completed a five-week regimen of three weekly treatments for a total of 15 treatments. For BT53, 100 mg/kg of pacritinib was administered twice per day alone or in combination with 50 mg/kg TMZ once per day, for one week via oral gavage. Following this, mice received 100 mg/kg pacritinib twice per day in combination with 10 mg/kg TMZ once per day for two weeks. Mice were euthanized with a lethal dose of sodium pentobarbital at a pre-defined humane endpoint. Specific criteria for the endpoint included: 20% weight loss, lack of grooming, inactivity, hind limb paralysis, and/or inability to eat or drink. The body weights were closely monitored throughout the course of the experiment. […] The presence of tumor was confirmed in the mice via necropsy and cranial dissection."}, "[8]": {"system": "patient-derived GBM BTIC cultures", "assay": "alamarBlue viability assay, panel of BTIC cultures", "details": "10 μg/mL TMZ", "experimental": "Accumax (eBioscience) was used to enzymatically dissociate BTIC spheres to single cells. Cells were seeded at 1000 cells per well in 96-well plates and treated with vehicle (DMSO) or drug, 24 hours after plating. BTIC viability was assessed after 7–14 days, once spheres were formed in control wells, by performing the alamarBlue™ (Invitrogen) assay per the manufacturer’s instructions. In brief, the alamar dye was added to each well and plates were read 6 hours later. Fluorescence intensity (excitation 540 nm; emission 590 nm) was measured on a SpectraMax M Series Multi-Mode Microplate reader. […] All experiments were performed in triplicate with a minimum of 3 wells per condition.\nBTICs were treated with suboptimal doses of 1 μM pacritinib (CTI Biopharma), 10 μg/mL TMZ (Sigma), or a combination of pacritinib and TMZ. […] Percent inhibition was determined by normalizing each well to the control well (0.1% DMSO)."}},
  "note": "Read-outs that look alike come from different tables or passages of the source.",
  "data": [
    {"smiles": "Cc1cc(=O)n(-c2ccccc2)n1C", "note": "[Antipyrine]", "values": [
      {"measurement": "remaining at 0.5 h, 1 μM", "setting": "[1]; microsomes, % Remaining", "value": 96.5, "unit": "%"},
      {"measurement": "Usual value (% remaining)", "setting": "[2]", "value": "Usual value: >90%"}
    ]},
    {"smiles": "COc1ccc2c(c1)[C@]13CCCC[C@@H]1[C@H](C2)N(C)CC3", "note": "[DXM]", "values": [
      {"measurement": "% Remaining", "setting": "[3]", "value": 75.0, "unit": "%"},
      {"measurement": "Usual value (% remaining)", "setting": "[4]", "value": "Usual value: 72 ± 10%"}
    ]},
    {"smiles": "CC(C)NCC(O)COc1cccc2ccccc12", "note": "(centres unmarked) [Propranolol]", "values": [
      {"measurement": "remaining at 0.5 h, 1 μM", "setting": "[1]; liver microsomes, mouse liver microsomes, 30-minute incubation, 1 μM, read-out: % Remaining", "value": 9.6, "unit": "%"},
      {"measurement": "Usual value (% remaining)", "setting": "[2]", "value": "Usual value: <20%"}
    ]},
    {"smiles": "Cn1nnc2c(C(N)=O)ncn2c1=O", "note": "[TMZ, temozolomide]", "values": [
      {"measurement": "p-STAT3 Y705", "setting": "[5]", "value": "dramatic increase in p-STAT3 Y705"},
      {"measurement": "survival advantage over the control, combination study", "setting": "[6]", "value": "significant survival advantage over the control arm"},
      {"measurement": "median survival", "setting": "[7]", "value": 58, "unit": "days"},
      {"measurement": "sensitivity of MGMT unmethylated BTIC cultures", "setting": "[8]; representative BT12", "value": "largely resistant to TMZ"},
      {"measurement": "sensitivity of MGMT methylated BTIC cultures", "setting": "[8]; representative BT67 and BT69", "value": "highly sensitive to TMZ"}
    ]}
  ]
}
